Data from US20090318493A1 (Roche Palo Alto LLC, priority 2008, published 2009).
Read-outs that look alike come from different tables or passages of the source.

Assays:
Assay type in all cases: binding
hSERT transporter = target: T1, hSERT transporter (Homo sapiens, UniProt P31645); experiment: Human serotonin transporter (hSERT) scintillation proximity assay, competition with [3H]-Citalopram
T1 construct: expressed in transfected cells; membranes prepared
Text: Screening for Human Serotonin Transporter (hSERT) Antagonists Using a Scintillation Proximity Assay (SPA)
The screening assay of this example was used to determine the affinity of ligands at the hSERT transporter by competition with [^3H]-Citalopram.
Scintillation Proximity Assay (SPA) works by bringing radioligand within close proximity to the bead's scintillant to stimulate light emission. In this assay, the receptor-containing membranes were pre-coupled to the SPA beads and the binding of the appropriate radioligand to the transporter was measured. The light emission was proportional to the amount of bound radioligand. Unbound radioligand produced no signal as a result of distant proximity to scintillant (lack of energy transfer).
Cells are released from culture flasks using PBS for 1-2 minutes. The cells were subsequently centrifuged at 1000 g's for 5 minutes and resuspended in PBS prior to being used in the membrane preparation.
(§1) Cell membranes were prepared using a membrane preparation buffer of 50 mM TRIS (pH 7.4). Cell membranes were prepared from a single cube (7.5×10^9 cells total). Cells were homogenized using a Polytron (setting medium for a 4 second burst). The homogenate was then centrifuged at 48,000×g for 15 minutes, the supernatant subsequently removed and discarded, and the pellet resuspended with fresh buffer. After a second centrifugation, the pellet was re-homogenized and brought to a final volume determined during the assay. Typically, membrane portions were aliquoted in 3 mg/ml (w:v). and stored at −80° C.
Compounds of the invention were diluted from 10 mM to 0.1 nM FAC (10 point curves, whole log/half log dilutions) via a Beckman Biomek 2000 using a serial dilution protocol. The test compounds were then transferred (20 μl/well) and the [^3H]-Citalopram radioligand was added at 50 μl/well. Membrane and beads were prepared to a ratio of 10 μg: 0.7 mg, with 0.7 mg PVT-WGA Amersham beads (Cat# RPQ0282V) added per well. 130 μl of the membrane: bead mixture was added to the assay plate.
The % inhibition was calculated for each compound tested [(Compound counts per minute (CPM) at maximum concentration-Non-Specific CPM)/Total CPM*100].
(§2) where max=total binding, min=non specific binding, x=concentration (M) of the tested compound and n=Hill slope. The inhibition dissociation constant (Ki) of each compound was determined according to the method of Cheng-Prusoff and then converted into negative logarithm (pKi) of the Ki.

hNET transporter = target: T2, hNET transporter (Homo sapiens, UniProt P23975); experiment: Human norepinephrine transporter (hNET) scintillation proximity assay, competition with [3H]-Nisoxetine
T2 construct: expressed in transfected cells; membranes prepared
Protocol: This assay was used to determine the affinity of ligands for the hNET transporter by competition with [^3H]-Nisoxetine. As in the hSERT assay of the above example, receptor-containing membranes were pre-coupled to the SPA beads and the binding of the appropriate radioligand to the transporter was measured. The light emission was proportional to the amount of bound radioligand, with unbound radioligand producing no signal.
HEK-293 cells (Tatsumi et al., Eur. J. Pharmacol. 1997, 30, 249-258) stably expressing recombinant hNET (Clone: HEK-hNET #2) were maintained with media (DMEM hi glucose with 10% FBS, 300 μg/ml G418 and 2 mM L-Glutamine) and incubated at 37° C. with 5% CO2. Cells were released from culture flasks using PBS for 1-2 minutes. The cells were subsequently centrifuged at 1000 g's for 5 minutes and resuspended in PBS prior to being used in the membrane preparation.
as §1, with “(7.5×10^9cells” for “(7.5×10^9 cells”, “3-6 mg/mil” for “3 mg/ml”
^3[H] […] Compounds of the invention were diluted from 10 mM to 0.1 nM FAC (10 point curves, whole log /half log dilutions) via a Beckman Biomek 2000 using a serial dilution protocol. The test compounds were then transferred (20 μl/well) and the radioligand was added at 50 μl/well. Membrane and beads were prepared to a ratio of 10 μg: 0.7 mg, with 0.7 mg PVT-WGA Amersham beads (Cat# RPQ0282V) added per well. 130 μl of the membrane: bead mixture was added to the assay plate. The mixtures were allowed to stand at room temperature for one hour, and were then counted on a Packard TopCount LCS, a generic SPA counting protocol settings (Energy Range: Low, Efficiency Mode: Normal, Region A: 1.50-35.00, Region B: 1.50-256.00, Count Time (min.): 0.40, Background Subtract: none, Half-Life Correction: no, Quench Indicator: tSIS, Platemap blank subtraction: No, Cross talk reduction: Off).
The % inhibition was calculated for each compound tested [(Compound CPM at maximum concentration-Non-Specific CPM)/Total CPM*100]. The concentration producing 50% inhibition (IC50) was determined using an iterative non-linear curve fitting technique with Activity Base/Xlfit using the following equation:
as §2

hDAT = target: T3, hDAT (Homo sapiens, UniProt Q01959); experiment: Human dopamine transporter scintillation proximity assay, competition with [3H]-Vanoxerine
T3 construct: expressed in transfected cells; plated whole cells
Protocol: This assay was used to determine the affinity of ligands for the dopamine transporter by competition with [^3H]-Vanoxerine.
Cells were plated four hours prior to experiment by placing approximately 30,000 cells per well (in PBS) on white, opaque Cell-Tak coated 96 well plates. Extra buffer was apriated from the cell plates using an ELx405 plate washer.
Compounds of the invention were diluted from 10 mM to 0.1 nM FAC (10 point curves, whole log/half log dilutions) via a Beckman Biomek 2000 using a 10-point dilution protocol. The mixtures were allowed to stand at room temperature for 30 minutes, and were then counted on a Packard TopCount LCS, a generic SPA counting protocol settings, Count Time (min.): 0.40, Background Subtract: none, Half-Life Correction: none, Quench Indicator: tSIS, Platemap blank subtraction: none, Cross talk reduction: Off).
The % inhibition was calculated for each compound tested [(Compound CPM at maximum concentration-Non-Specific CPM)/Total CPM*100].
as §2

[1] = Table 1, read-out: pIC50 NET (converted)
[2] = Table 1, read-out: pIC50 SERT (converted)
[3] = Table 1, read-out: pIC50 DAT (converted)

T1 sequence (P31645 whole entry): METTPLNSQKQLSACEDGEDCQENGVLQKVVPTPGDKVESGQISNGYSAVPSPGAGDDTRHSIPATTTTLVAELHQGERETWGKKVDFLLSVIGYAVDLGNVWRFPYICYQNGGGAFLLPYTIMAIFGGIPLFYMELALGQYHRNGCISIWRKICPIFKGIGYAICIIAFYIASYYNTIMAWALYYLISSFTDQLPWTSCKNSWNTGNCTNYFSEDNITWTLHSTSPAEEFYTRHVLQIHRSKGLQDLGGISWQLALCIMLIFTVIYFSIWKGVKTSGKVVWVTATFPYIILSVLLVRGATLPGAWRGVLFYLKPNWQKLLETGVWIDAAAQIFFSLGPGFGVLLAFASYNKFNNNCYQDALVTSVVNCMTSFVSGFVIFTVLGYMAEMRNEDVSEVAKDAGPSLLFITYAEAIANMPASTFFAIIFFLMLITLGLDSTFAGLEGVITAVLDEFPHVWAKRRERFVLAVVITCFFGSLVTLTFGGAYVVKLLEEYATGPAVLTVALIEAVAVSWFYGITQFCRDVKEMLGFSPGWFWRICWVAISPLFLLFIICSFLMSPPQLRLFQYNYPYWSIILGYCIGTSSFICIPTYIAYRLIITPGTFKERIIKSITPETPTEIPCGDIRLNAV
T3 sequence (Q01959 whole entry): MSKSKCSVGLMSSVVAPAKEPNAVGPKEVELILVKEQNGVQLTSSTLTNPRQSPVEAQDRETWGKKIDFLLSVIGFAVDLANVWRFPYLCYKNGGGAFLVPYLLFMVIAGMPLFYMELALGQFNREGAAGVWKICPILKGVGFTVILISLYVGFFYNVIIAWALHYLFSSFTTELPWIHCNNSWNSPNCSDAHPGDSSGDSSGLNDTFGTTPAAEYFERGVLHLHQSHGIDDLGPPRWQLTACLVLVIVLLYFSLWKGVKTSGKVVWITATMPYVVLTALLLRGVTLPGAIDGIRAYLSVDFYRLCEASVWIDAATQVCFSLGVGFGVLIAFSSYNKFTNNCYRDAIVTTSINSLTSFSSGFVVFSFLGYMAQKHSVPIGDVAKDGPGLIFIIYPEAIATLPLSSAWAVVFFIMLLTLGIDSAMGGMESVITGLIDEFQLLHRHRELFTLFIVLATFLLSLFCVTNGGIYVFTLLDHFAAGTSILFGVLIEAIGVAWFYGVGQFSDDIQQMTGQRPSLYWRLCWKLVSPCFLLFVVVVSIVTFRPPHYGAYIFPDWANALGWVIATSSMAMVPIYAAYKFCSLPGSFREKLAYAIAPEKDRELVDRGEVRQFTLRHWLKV
T2 sequence (P23975 whole entry): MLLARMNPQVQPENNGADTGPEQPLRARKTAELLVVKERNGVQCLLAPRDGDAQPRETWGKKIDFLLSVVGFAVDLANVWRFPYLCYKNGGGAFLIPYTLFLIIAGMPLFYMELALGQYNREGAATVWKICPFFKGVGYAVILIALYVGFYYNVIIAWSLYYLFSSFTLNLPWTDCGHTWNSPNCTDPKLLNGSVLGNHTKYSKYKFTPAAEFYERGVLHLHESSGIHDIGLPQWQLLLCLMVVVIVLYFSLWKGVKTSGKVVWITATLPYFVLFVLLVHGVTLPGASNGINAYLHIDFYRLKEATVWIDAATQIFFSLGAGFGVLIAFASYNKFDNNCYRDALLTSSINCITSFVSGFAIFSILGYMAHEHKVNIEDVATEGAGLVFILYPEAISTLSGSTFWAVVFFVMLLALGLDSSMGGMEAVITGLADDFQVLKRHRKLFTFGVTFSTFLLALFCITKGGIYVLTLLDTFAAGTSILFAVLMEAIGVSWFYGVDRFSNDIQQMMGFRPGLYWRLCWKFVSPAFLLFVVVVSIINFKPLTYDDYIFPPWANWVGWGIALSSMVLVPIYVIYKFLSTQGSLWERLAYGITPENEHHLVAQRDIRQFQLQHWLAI

SMILES: CC(C)C[C@@]1(C(=O)c2ccc(Cl)c(Cl)c2)CC[C@@H]2CC[C@H]1N2 [Compound 47, (3,4-Dichloro-phenyl)-((1R,2S,5R)-2-isobutyl-8-aza-bicyclo[3.2.1]oct-2-yl)-methanone]
- IC50 (hSERT transporter): 7.94 nM
- IC50 (hNET transporter; [1]): 200 nM
- IC50 (hDAT): 24 nM

SMILES: CCCC1(C(=O)c2ccc(Cl)c(Oc3ccccc3)c2)CCNCC1 [Compound 46, (4-Chloro-3-phenoxy-phenyl)-(4-propyl-piperidin-4-yl)-methanone]
- IC50 (hSERT transporter; [2]): 7.08 nM
- IC50 (hNET transporter; [1]): 11.5 nM
- IC50 (hDAT; [3]): 30.2 nM

SMILES: CC(C)(C)CC[C@@]1(C(=O)c2cc(F)c(N)c(Cl)c2)CCNC1 [Compound 26, (4-Amino-3-chloro-5-fluoro-phenyl)-[(R)-3-(3,3-dimethyl-butyl)-pyrrolidin-3-yl]-methanone]
- IC50 (hSERT transporter): 75.9 nM
- IC50 (hNET transporter; [1]): 25.1 nM
- IC50 (hDAT): 26.9 nM

SMILES: Cc1ccc(C(=O)C2(CC(C)C)CCNCC2)cc1Cl [Compound 35, (3-Chloro-4-methyl-phenyl)-(4-isobutyl-piperidin-4-yl)-methanone]
- IC50 (hSERT transporter; [2]): 0.589 nM
- IC50 (hNET transporter; [1]): 45.7 nM
- IC50 (hDAT; [3]): 10.5 nM

SMILES: CCCC1(C(=O)c2ccc(Cl)c(Oc3ccccc3)c2)CCNC1 (stereo in doubt) [Compound 29, (4-Chloro-3-phenoxy-phenyl)-((S)-3-propyl-pyrrolidin-3-yl)-methanone]
- IC50 (hSERT transporter): 13.2 nM
- IC50 (hNET transporter; [1]): 2.63 nM
- IC50 (hDAT): 10.5 nM

SMILES: CCCC[C@]1(C(=O)c2ccc(Cl)c(Cl)c2N)CC2CC[C@H]1N2 [Compound 3]
- IC50 (hSERT transporter): 83.2 nM
- IC50 (hNET transporter; [1]): 182 nM
- IC50 (hDAT): 70.8 nM

SMILES: O=C(c1ccc(Cl)c(Cl)c1)C1(CC2CCOCC2)CCNCC1 [Compound 41, (3,4-Dichloro-phenyl)-[4-(tetrahydro-pyran-4-ylmethyl)-piperidin-4-yl]-methanone]
- IC50 (hSERT transporter; [2]): 1.15 nM
- IC50 (hNET transporter; [1]): 209 nM
- IC50 (hDAT; [3]): 7.94 nM

SMILES: CCCC1(C(=O)c2ccc3ccccc3c2)CCNCC1 [Compound 36, Naphthalen-2-yl-(4-propyl-piperidin-4-yl)-methanone]
- IC50 (hSERT transporter): 0.102 nM
- IC50 (hNET transporter; [1]): 15.8 nM
- IC50 (hDAT): 9.12 nM

SMILES: CC(C)CCC1(C(=O)c2ccc(Cl)c(Oc3ccccc3)c2)CCNC1 (stereo not drawn) [Compound 12]
- IC50 (hSERT transporter): 43.7 nM
- IC50 (hNET transporter): 12 nM
- IC50 (hDAT; [3]): 1480 nM

SMILES: O=C(c1ccc(Cl)c(Cl)c1)C1(CC2CCCC2)CCNCC1 [Compound 39, (4-Cyclopentylmethyl-piperidin-4-yl)-(3,4-dichloro-phenyl)-methanone]
- IC50 (hSERT transporter; [2]): 1.48 nM
- IC50 (hNET transporter; [1]): 41.7 nM
- IC50 (hDAT; [3]): 3.16 nM

SMILES: CCCC1(C(=O)c2ccc(Cl)c(Oc3ccccc3)c2)CCNC1 (stereo in doubt) [Compound 30, (4-Chloro-3-phenoxy-phenyl)-((R)-3-propyl-pyrrolidin-3-yl)-methanone]
- IC50 (hSERT transporter): 18.6 nM
- IC50 (hNET transporter; [1]): 24 nM
- IC50 (hDAT): 2.34 nM

SMILES: CCCC1(C(=O)c2ccc(Cl)cc2Oc2ccccc2)CCNCC1 [Compound 40, (4-Chloro-2-phenoxy-phenyl)-(4-propyl-piperidin-4-yl)-methanone]
- IC50 (hSERT transporter; [2]): 69.2 nM
- IC50 (hNET transporter; [1]): 27.5 nM
- IC50 (hDAT; [3]): 1480 nM

SMILES: CC(C)C[C@@]1(C(=O)c2cc(F)c(N)c(Cl)c2)CCNC1 [Compound 23]
- IC50 (hSERT transporter): 4.79 nM
- IC50 (hNET transporter; [1]): 3.98 nM
- IC50 (hDAT): 6.17 nM

SMILES: CCCC1(C(=O)c2ccc(Cl)c(N(C)c3ccccc3)c2)CCNCC1 [Compound 51, [4-Chloro-3-(methyl-phenyl-amino)-phenyl]-(4-propyl-piperidin-4-yl)-methanone]
- IC50 (hSERT transporter; [2]): 18.6 nM
- IC50 (hNET transporter; [1]): 162 nM
- IC50 (hDAT; [3]): 195 nM
